Results on four substances are retold here after publication PMC9456491, “Targeting the Mitochondrial Protein VDAC1 as a Potential Therapeutic Strategy in ALS” (International Journal of Molecular Sciences, 2022).

For assay [1], the system named is SH-SY5Y neuronal cells expressing mutant SOD1^G93A or SOD1^G37R. Put plainly: Rescue of mutant SOD1-induced cell death in transfected SH-SY5Y cells. It is filed as cell-based. The following applies: 4.5 × 10^4 cells/well, transfected with SOD1^G93A or SOD1^G37R, peptide 20 µM, 5 h, 24 h post-transfection, triplicates, n = 3, means ± SEM. As for the experimental part: Figure 1 Identification of VDAC1 interacting sites in SOD1. (A) SH-SY5Y cells (4.5 × 10^4 cells/well in 24-well plates) were transfected with an empty plasmid or a plasmid encoding for mutant SOD1^G93A or SOD1^G37R. Then, 24 h post-transfection, the cells were incubated for 5 h with (10-20)N-Ter-Antp peptide (20 µM) and then analyzed for cell death. The results are from triplicates of different biological repeats (n = 3) and are presented as the means ± SEM. * p < 0.05. (B) Schematic presentation of peptide arrays and detection of VDAC1-interacting peptides. (C) Glass-bound peptide array consisting of 768 overlapping peptides derived from 19 VDAC1-interacting proteins were incubated for 4 h with purified VDAC1 (64 nM) and then blotted with anti-VDAC1 antibodies against an internal sequence (1:5000) or with antibodies against the VDAC1-N-terminus, followed by incubation with HRP-conjugated anti-mouse IgG and detection using a chemiluminescence kit. […]
SH-SY5Y and NSC-34 cells were grown at 37 °C and with 5% CO2 in Dulbecco’s modified Eagle medium (DMEM) supplemented with 10% tetracycline-free fetal bovine serum (FBS), L-Glutamine (2 mM), and penicillin (100 U/mL)/streptomycin (0.1 mg/mL). […] According to the manufacturer’s protocol, cell viability was analyzed using the CellTiter 96 AQueous one-solution cell proliferation assay (Promega) and plate reader at 490 nm.

For assay [2] the following is noted: ref [32]; cited from earlier work. An excerpt:
In order to test whether a VDAC1-derived N-terminal peptide can rescue mutant SOD1 toxicity, we expressed two different SOD1 mutants (SOD1^G93A or SOD1^G37R) in SH-SY5Y neuronal cells. These expressed SOD1 mutant proteins decreased cell survival compared to control cells. […] It is important to note that in this peptide, the last six residues f ...

For assay [3], the system named is VDAC1 interaction with SOD1-derived peptides (spots 1C16 and 1C17). Put plainly: Inhibition of VDAC1 interaction with SOD1-derived peptides on peptide array. The assay is classed as binding, rat. Particulars: VDAC1 64 nM pre-incubated 1 h with 160 nM SOD1 protein, then 4 h with array; for inhibition of VDAC1 interaction with 1C17 peptide: spot 1C17; for decrease of VDAC1 interaction with both SOD1-derived peptides 1C16 and 1C17: spots by Image J. The method, then: Figure 2 VDAC1 interaction with SOD1-derived peptides is reduced by WT and mutant SOD1. VDAC1 (64 nM) was pre-incubated for 1 h without (A) or with 160 nM of SOD1^WT (B), SOD1^G93A (C), or SOD1^G85R (D), followed by incubation for 4 h with the peptide array and then blotted with anti-VDAC1 antibodies, as in Figure 1C. SOD1-derived sequences are circled. […] (G) Pull down with anti-SOD1 antibody was performed by incubating recombinant VDAC1 and SOD1 proteins (2 µg each) with increasing concentrations of SOD1-derived peptide (0, 5, 15, and 30 µM). Immunoblotting was used to determine the levels of SOD1^G93A and VDAC1 in the bound and unbound fraction of each immunoprecipitation experiment. […] (H) Quantification of immunoblotting bands with ImageJ software. Quantification analysis of the relative VDAC1 intensity was performed with one-way ANOVA. Bars represent mean ± SEM. TEXT PRINTED IN THE PICTURE: (F) SOD1-derived peptide: Kd= 4 μM
Customized 768-peptide sequences derived from 19 VDAC1-interacting proteins produced by INTAVIS Peptide Services (GmbH & Co. KG, Tübingen, Germany) were arrayed on a glass slide. The interaction of purified VDAC1 with glass-bound peptide arrays (BGUN_SB-002) was assessed by slide washing with TBST buffer (150 mM NaCl, 50 mM Tris/HCl, pH 7.4, and 0.1% Tween-20), followed by overnight incubation with blocking buffer (Tris-buffered saline, pH 7.8, containing 2.5% low-fat milk, w/v) at 4 °C. Next, the peptide array glass slides were incubated with purified VDAC1 (64 nM) in 400 µL of protein-interacting buffer (20 mM HEPES, 100 mM KCl, pH,7.4, PBS) at room temperature for 4 h in a humidified chamber. Then, the peptide array glass slides were washed (three times, 10 min each) with TBST and incubated overnight at 4 °C with anti-VDAC1 antibody against an internal sequence (ab15895) or against the N-terminus (ab154856) (1:5000). The peptide array glass slides were washed with 0.1% Tween-20 in TBS buffer/Tris-buffered saline (150 mM NaCl, 50 mM Tris/HCl, pH 7.4 TBST), followed by incubation for 2 h at RT with HRP-conjugated anti-mouse or anti-rabbit (1:10,000) or anti-goat (1:20,000) IgG as a secondary antibody. Enhanced chemiluminescent substrate (Pierce Chemical, Rockford, IL, USA) was used to detect HRP. The signal was captured in the dark using FUSION-FX (Vilber Lourmat) software.
The VDAC1 protein was purified from rat liver mitochondria, as previously described. Briefly, rat liver mitochondria (5 mg/mL) in 10 mM Tris-HCl, pH 7.2, were incubated with 2% LDAO on ice for 20 min, followed by centrifugation (30 min, 14,000× g), and the obtained supernatant was loaded onto a dry celite:hydroxyapatite (2:1) column. VDAC1 was eluted with a solution containing 2% LDAO, 10 mM Tris-HCl, pH 7.2, 50 mM NaCl, and 22 mM NaH2PO4. The VDAC1-containing fractions were dialyzed against 10 mM Tris-HCl, pH 7.2, and subjected to a second chromatography step on a carboxymethyl-cellulose (CMC) column from which VDAC1 was eluted with a solution containing 10 mM Tris-HCl, pH 7.2, 0.3% LDAO, and 500 mM NaCl. The VDAC1-containing fractions were collected and used for VDAC1 channel conductance and microscale thermophoresis (MST) assays.
Recombinant SOD1^WT, SOD1^G93A, and SOD1^G85R were purified as previously described. Briefly, the proteins were expressed as 6His-tagged (N-term) soluble proteins in BL21 cells, and the expression of the recombinant proteins was induced by addition of 0.5 mM IPTG, following purification using a 5mL HisTrap FF column (GE Healthcare, Chicago, IL, USA). The peak fractions were dialyzed overnight at 4 °C against a storage buffer (50 mM Na^+/phosphate, pH 7.6, 0.1 M NaCl, and 10% glycerol), concentrated by ultrafiltration (10 kDa cutoff, Millipore, USA), centrifuged at 110,000× g at 4 °C for 1 h using ultracentrifuge (Sorvall M120 Discovery, Waltham, MA, USA), and stored at −20 °C until use. […]

Regarding “1-MAVPPTYADLGKSARDVFTK-20-RQIKIWFQNRRMKWKK [(10–20)-N-Ter-Antp, VDAC1-N-terminus-derived peptide]”, the “rescue of mutant SOD1-induced toxicity (cell survival)” value in assay [1] is listed as “rescued mutant SOD1-induced toxicity increasing SH-SY5Y cell survival”. In addition, the cell death activity result in assay [2] is recorded as “lost its cell death activity”.

“SOD1^G85R: recombinant dismutase inactive SOD1 mutant, 6His-tagged (N-term)”: in assay [3], the “inhibition of VDAC1 interaction with 1C17 peptide” value (“inhibition … with 1C17 peptide” below) is “at a similar level”; the “decrease of VDAC1 interaction with both SOD1-derived peptides 1C16 and 1C17” value (“decrease of VDAC1 interaction” below) is reported as “decreased the VDAC1 interaction with both SOD1-derived peptides”.

Take “SOD1^G93A: recombinant dismutase active SOD1 mutant, 6His-tagged (N-term)”: in assay [3] (spot 1C16), the “inhibition of VDAC1 interaction with 1C16 peptide” value is “prevented the interaction of VDAC1 with the 1C16 peptide better than SOD1^WT and SOD1^G85R”. Moreover, in assay [3], the “inhibition … with 1C17 peptide” value is on record as “at a similar level”; the “decrease of VDAC1 interaction” value is on record as “decreased the VDAC1 interaction with both SOD1-derived peptides”.

Turning to “SOD1^WT: recombinant wild type SOD1, 6His-tagged (N-term)”, in assay [3], the “inhibition … with 1C17 peptide” value is listed as “at a similar level”; the “decrease of VDAC1 interaction” value is given as “decreased the VDAC1 interaction with both SOD1-derived peptides”.
